According to article PMC8564858, “Flavonoid-based inhibitors of the Phi-class glutathione transferase from black-grass to combat multiple herbicide resistance” (Organic & Biomolecular Chemistry, 2021):

Assays:
[1] = test system: AmGSTF1; assay: Thermal shift assay; assay type: binding, Alopecurus myosuroides; details: difference in melting temperature compared to no ligand
[2] = test system: AmGSTF1; assay: CDNB assay: inhibition of AmGSTF1-catalysed glutathionylation of CDNB; assay type: biochemical, Alopecurus myosuroides; details: for CDNB Assay % Inhibition: three replicate measurements

Compound	Thermal Shift Assay ∆Tm ([1]; 1 µM)	Thermal Shift Assay ∆Tm ([1]; 10 µM)	Thermal Shift Assay ∆Tm ([1]; 100 µM)	CDNB Assay % Inhibition ([2]; 10 µM compound)	CDNB Assay % Inhibition ([2]; 100 µM compound)	Inhibitory activity toward AmGSTF1 in the CDNB assay (in words) [2]	CDNB Assay % Inhibition ([2]; 1 µM compound)
COc1cc(OC)c2c(=O)cc(C(=O)Nc3ccccc3)oc2c1 [16a]	0.17	0.03	0.03	26%	49%		
COc1cc(NC(=O)c2cc(=O)c3c(OC)cc(OC)cc3o2)cc(OC)c1 [16b]	0.20	0.50	0.13	19%	56%		
COc1cc(OC)c2c(=O)cc(C(=O)Nc3ccc(C)cc3)oc2c1 [16c]	0.20	0.10	0.33	33%	64%		
COc1cc(OC)c2c(=O)cc(N3CCN(C)CC3)oc2c1 [17a]	0	-0.03	0.20		16%		
COc1cc(OC)c2c(=O)cc(N3CCOCC3)oc2c1 [17b]	0.06	0.23	0.20	0%	37%		
COc1cc(OC)c2c(=O)cc(N3CCCCC3)oc2c1 [17c]	0.23	0.13	0.30	12%	67%		
COc1cc(OC)c2c(=O)cc(NCCCO)oc2c1 [17d]	0.23	0.17	0.07		12%		
COc1cc(OC)c2c(=O)cc(-c3ccccc3)oc2c1 [18a]	0.23	0.33	0.3	20%	70%		
COc1cc(OC)c2c(=O)cc(-c3ccc(F)cc3)oc2c1 [18b]	0.17	0.33	0.27	23%	78%		
COc1ccc(-c2cc(=O)c3c(OC)cc(OC)cc3o2)cc1 [18c]	0.23	0.17	0.70	15%	100%		
COc1cc(OC)c2c(=O)cc(-c3cccc(-c4ccccc4)c3)oc2c1 [18d]	0.13	0.13	-0.1	12%	87%		
CCc1ccc(-c2cc(=O)c3c(OC)cc(OC)cc3o2)cc1 [18e]		0.10	0	11%	80%		
COc1cccc(-c2cc(=O)c3c(OC)cc(OC)cc3o2)c1 [18f]	0.33	0.2	-0.17	15%	79%		
COc1cc(OC)c2c(=O)cc(-c3ccc(OC)c(OC)c3)oc2c1 [18g]	0.30	-0.03	0.17	11%	100%		
COc1cc(OC)c2c(=O)cc(-c3ccc4c(c3)OCO4)oc2c1 [18h]	0.27	0.17	0.33	12%	33%		
COC(=O)c1ccc(-c2cc(=O)c3c(OC)cc(OC)cc3o2)cc1 [18i]	0.27	0.30	0.27	20%	58%		
COc1cc(OC)c2c(=O)cc(-c3ccccc3C)oc2c1 [18j]	-0.13	-0.03	-0.03	9%	36%		
COc1cc(OC)c2c(=O)cc(-c3cccc(S(C)(=O)=O)c3)oc2c1 [18k]	0.20	0.10	0.30	11%	60%		
COc1cc(OC)c2c(=O)cc(-c3ccc(S(C)(=O)=O)cc3)oc2c1 [18l]	0.13	0.20	0.30	14%	35%		
COc1cc(OC)c2c(=O)cc(-c3ccncc3)oc2c1 [18m]	0.23	0.27	0.23	10%	50%		
COc1cc(OC)c2c(=O)cc(-c3cnnc(C)c3)oc2c1 [18n]	-0.07	-0.13	-0.33	8%	64%		
O=c1c(-c2ccc(O)cc2)coc2cc(O)cc(O)c12 [compound 5, reference compound]					47%		

Compound	Thermal Shift Assay ∆Tm ([1]; 1 µM)	Thermal Shift Assay ∆Tm ([1]; 10 µM)	Thermal Shift Assay ∆Tm ([1]; 100 µM)	CDNB Assay % Inhibition ([2]; 10 µM compound)	CDNB Assay % Inhibition ([2]; 100 µM compound)	Inhibitory activity toward AmGSTF1 in the CDNB assay (in words) [2]	CDNB Assay % Inhibition ([2]; 1 µM compound)
COc1ccc(-c2coc3cc(O)ccc3c2=O)cc1 [compound 6, reference compound]					41%		
O=C1c2c(O)cc(O)cc2O[C@H](c2ccc(O)c(O)c2)[C@H]1O [compound 8, reference compound]					18%		
Oc1cc(O)c2c(c1)OC(c1ccc(O)c(O)c1)C(O)C2 (centres unmarked) [compound 10, catechin, reference compound]					0%	no inhibition	
Cc1cc(=O)c2c(O)cc(O)cc2o1 [compound 12]					63%	reduced inhibitory activity	
O=C(Oc1cc(O)c2c(=O)cc(-c3ccccc3)oc2c1)c1ccccc1 [compound 27]					4%		
CC(=O)Oc1cc(O)c2c(=O)cc(-c3ccccc3)oc2c1 [compound 28]					10%		
CCCCCC(=O)Oc1cc(O)c2c(=O)cc(-c3ccccc3)oc2c1 [compound 29]					6%		
O=c1cc(-c2ccccc2)oc2cc(OCc3ccccc3)cc(O)c12 [compound 30]					53%		
O=c1cc(-c2ccccc2)oc2cc(OCC3CC3)cc(O)c12 [compound 31]					76%		
O=c1cc(-c2ccccc2)oc2cc(OCC3CCCC3)cc(O)c12 [compound 32]					80%		
CCCCCOc1cc(O)c2c(=O)cc(-c3ccccc3)oc2c1 [compound 33]					87%		
O=c1cc(-c2ccccc2)oc2cc(OCC3CCCCO3)cc(O)c12 (centres unmarked) [compound 34]					28%		
O=c1cc(-c2ccccc2)oc2cc(OCc3cccnc3)cc(O)c12 [compound 35]					87%		
COc1ccc(CNc2cc(O)c3c(=O)cc(-c4ccccc4)oc3c2)cc1 [compound 36]					45%		
O=c1cc(-c2ccccc2)oc2cc(N3CCCC3)cc(O)c12 [compound 37]					46%		
O=c1cc(-c2ccccc2)oc2cc(N3CCCCC3)cc(O)c12 [compound 38]					88%		
O=c1cc(-c2ccccc2)oc2cc(N3CCOCC3)cc(O)c12 [compound 39]				56%	100%		
COc1cc(OCC(=O)O)c2c(=O)cc(-c3ccccc3)oc2c1 [compound 40]							23%
COc1cc(OC(C(=O)O)C(C)C)c2c(=O)cc(-c3ccccc3)oc2c1 (centres unmarked) [compound 47]							7%
COc1cc(OC(C(=O)O)c2ccccc2)c2c(=O)cc(-c3ccccc3)oc2c1 (centres unmarked) [compound 48]							16%
COc1cc(OC(C(=O)O)c2ccc(Cl)cc2)c2c(=O)cc(-c3ccccc3)oc2c1 (centres unmarked) [compound 49]							27%
COc1cc(OC(Cc2ccccc2)C(=O)O)c2c(=O)cc(-c3ccccc3)oc2c1 (centres unmarked) [compound 50]							8%
